Test results reported in patent US8796302B2 (priority 2004, dated 2014).

Columns and labels:
[1] = system: dopaminergic neurons in mesencephalic neuron-enriched cultures; test: [3H]DA uptake in neuron-enriched cultures (direct, conditioned media, reconstituted); format: cell-based, rat; details: neuron-enriched cultures, 7 days; drug 0.6 mM or conditioned medium
Description: Mixed-glia cultures were first prepared from brains of 1-day-old Fisher 344 rat pups, as described previously (Liu, et al. 2001). Mechanically dissociated brain cells (5×10^7) were seeded onto 150 cm^2 culture flasks in Dulbecco's modified Eagle's medium containing 10% heat-inactivated FBS, 2 mM L-glutamine, 1 mM sodium pyruvate, 100 μM non-essential amino acids, 50 U/ml penicillin, and 50 μg/ml streptomycin. The cultures were maintained at 37° C. in a humidified atmosphere of 5% CO2 and 95% air, and medium was replenished 4 days after the initial seeding. Upon reaching confluence (usually 12-14 days later), microglia were detached from astroglia by shaking the flasks for 5 hours at 180 rpm. Astroglia were then detached with trypsin-EDTA and seeded in the same culture medium. After five or more consecutive passages, cells were seeded onto 24-well plates (10^5/well) for experiments. Immunocytochemical staining of the astroglia enriched cultures with either anti-GFAP or anti-OX-42 antibody indicated astroglial purity of greater than 98% and less than 2% of microglia contamination.
Conditioned medium derived from rat primary astroglial cultures treated with vehicle (ACM) or 0.6 mM VPA (ACM-VPA) were harvested after 12, 24 and 48 hours of incubation. Midbrain neuron-enriched cultures seeded in 24-well plates at a density of 5×10^5 cells/well were treated with vehicle, VPA, ACM or ACM-VPA for 7 days. Neurotrophic effect was quantified by [^3H]DA uptake assay.
Rat mesencephalic neuron-enriched cultures are prepared from dissociated ventral mesencephalic cells from embryonic day 13-14 Fisher 344 rats were seeded first at a density of 5×10^5/well to poly-D-lysine-precoated 24-well culture plates. […] Three days later, the culture medium was replaced with the maintenance medium. Routinely, the seven-day-old neuron-enriched cultures were used for treatment. […] Of the Neu-N immunoractive neurons, 2.7-3.9% was TH-IR neurons.
To explore whether astroglial cells are also the main target of sodium butyrate-induced neurotrophic effect, we prepared media conditioned by incubation of astroglial cultures in the absence or presence 0.6 mM sodium butyrate. Conditioned medium derived from rat primary astroglial cultures treated with vehicle (ACM) or 0.6 mM sodium butyrate (ACM-Sodium butyrate) were harvested after 48 hours of incubation. Midbrain neuron-enriched cultures seeded in 24-well plates at a density of 5×10^5 cells/well were treated with vehicle, sodium butyrate, ACM or ACM-Sodium butyrate for 7 days. Seven days after treatment, neurotrophic effect for dopaminergic neurons was assessed by [^3H]DA uptake assays.
Various concentrations of 3-HM (0.1-5 μM) or vehicle were added to the following different cell cultures: neuron-enriched cultures (A); reconstituted cultures by adding 10% and 20% (5×10^4/well and 1×10^5/well) of microglia to the neuron-enriched cultures (B); reconstituted cultures by adding 40% and 50% (2×10^5/well and 2.5×10^5/well) of astroglia to the neuron-enriched cultures (C). Cultures are prepared as described in Example 25. The [^3H]DA uptake measurements were performed […] after treatment. Results were expressed as a percentage of the vehicle-treated control cultures and were the mean±SE from five (A) and four (B,C) independent experiments in triplicate. *P<0.05 and **P, 0.001 compared with the vehicle-treated control cultures. #P<0.05 compared with the augmented cultures with 40% astroglia. N, neuron-enriched cultures; N+10% (20%) MG: 10% (20%) of microglia were added back to the neuron-enriched cultures; N+40% (50%) AS: 40% (50%) of astroglia were added back to the neuron-enriched cultures.
To confirm the possible role of astroglia in the neurotrophic effect of 3-HM, conditioned media from astroglia-enriched cultures (prepared as described above) treated with either 3-HM (1-5 μM) or vehicle for 24 hours were prepared. […]

[2] = system: dopaminergic neurons in rat primary mesencephalic neuron-glia cultures; test: DA uptake / TH-IR count in neuron-glia cultures without toxin (spontaneous DA neuronal death, neurotrophic effect); format: cell-based; details: sodium butyrate, indicated concentrations, 7 days
Description: In Example 23, [^3H]DA uptake assay and immunohistochemical analysis for TH-IR neurons were used to assess the viability of DA neurons in rat primary mesencephalic neuron-glia cultures in which approximately 1% of the neurons are dopaminergic. [^3H]DA uptake assays were performed as described in Example 1.
Rat primary mesencephalic neuron-glia cultures were prepared from the ventral mesencephalic tissues of embryonic day 13-14 Fisher 344 rats. Dissociated cells were seeded at a density of 5×10^5/well to poly-D-lysine-precoated 24-well plates. Cells were maintained at 37° C. in a humidified atmosphere of 5% CO2 and 95% air, in minimal essential medium containing 10% fetal bovine serum (FBS), 10% horse serum, 1 gm/l glucose, 2 mM L-glutamine, 1 mM sodium pyruvate, 100 μM non-essential amino acids, 50 U/ml penicillin, and 50 μg/ml streptomycin. Unless otherwise indicated, seven-day-old cultures were used for treatment.
Seven days after seeding, each well was treated with indicated concentration of VPA or its vehicle. Seven days after treatment, the viability of dopaminergic neurons was assessed by [^3H]DA uptake assays. Quantified results are expressed as mean±SEM of percentage of vehicle-treated cultures from three experiments performed in duplicate. *, p<0.05 compared with the corresponding vehicle-treated control cultures.
Next, the rat primary mesencephalic neuron-glia cultures were treated with 0.6 mM VPA for various times to determine the treatment time-dependency. Rat primary mesencephalic neuron-glia cultures in a 24-well plate were treated with 0.6 mM VPA or its vehicle for indicated time 7 days after seeding. The viability of dopaminergic neurons was assessed by [^3H]DA uptake assays, shown in FIG. 37 or counting of TH-IR neurons, shown in FIG. 38. Quantified results are expressed as mean±SEM of percentage of vehicle-treated control cultures from three experiments performed in duplicate. *, p<0.05 compared with the corresponding vehicle-treated control cultures. […] VPA time-dependently induces survival-promoting effects against spontaneous DA neuronal death in rat primary mesencephalic neuron-glia cultures.
Rat primary mesencephalic neuron-glia cultures seeded in a 24-well culture plate at density of 5×10^5 per well were treated with indicated concentrations of sodium butyrate or its vehicle 7 days after seeding. The viability of dopaminergic neurons was assessed by DA uptake assays 7 days after sodium butyrate addition.
Mesencephalic neuron-glia cultures, prepared as described above, were pretreated with vehicle or 3-HM (1-5 μM) before the treatment of LPS (10 ng/ml). Seven days later, the degeneration of dopaminergic neurons was determined by the functional assay of [^3H]DA uptake and by the morphometric measurement of dopaminergic neurons following immunostaining with an anti-TH antibody. [^3H]DA and immunostaining are performed as described above.

TNFα = TNFα production in neuron-glia cultures of PHOX+/+ and PHOX−/− mice; format: cell-based, mouse; details: LPS 5 ng/ml
Description: (§1) Neurotoxicity was assessed by DA uptake as described in Example 1. TNFα production was measured by ELISA and iROS was determined by DCFDA as in Example 5. Results are expressed as a percentage of the control culture in FIG. 7A, pg/ml in FIG. 7B, and difference from control in FIG. 7C, respectively, and are the mean±S.E.M. of five individual experiments with triplicates in each experiment. *, P<0.05 compared with LPS culture.
(§2) The rat and mouse ventral mesencephalic neuron-glia cultures were prepared as in Example 1. […] DA neurotoxicity was measured by using the [^3H] DA uptake assay as in Example 1. The data are expressed as the percent of the control cultures and are the mean±SEM. The release of TNFα was measured with a commercially available enzyme-linked immunosorbent assay kit. *P<0.05, **P<0.01, compared to control. The amount of TNFα was measured as in Example 2.

[3] = system: TH-IR (dopaminergic) neurons in mesencephalic neuron-glia cultures; test: TH-IR neuron count and morphology in LPS-treated neuron-glia cultures; format: cell-based, rat; details: LPS 5 ng/ml
[4] = system: dopaminergic neurons in rat primary mesencephalic neuron-glia cultures; test: [3H]DA uptake in LPS-treated mesencephalic neuron-glia cultures; format: cell-based; details: LPS 5 ng/ml
Description: Neuron-glia cultures were prepared from the ventral mesencephalic tissues of embryonic day 13-14 Fisher F344 rats or day 12-13 wild-type C57BL/6J (gp91phox^+/+) mice. Dissociated cells were seeded at 1×10^5/well and 5×10^5/well to poly-D-lysine-coated 96-well and 24-well plates, respectively. Cells were maintained at about 37° C. in a humidified atmosphere of 5% CO2 and 95% air, in minimal essential medium (MEM) containing 10% fetal bovine serum (FBS), 10% horse serum (HS), 1 gm/l glucose, 2 mM L-glutamine, 1 mM sodium pyruvate, 100 μM nonessential amino acids, 50 U/ml penicillin, and 50 μg/ml streptomycin. Seven-day-old cultures were used for treatment.
Dextromethorphan (obtained from Sigma-Aldrich (St. Louis, Mo.) as dextromethorphan hydrobromide) was freshly prepared as a stock solution (1 mM) in ddH2O and sterile-filtered right before use. For treatment of the cultures, the DM was serially diluted (10×) with fresh culture medium containing 2% of fetal bovine and horse serum. The neuron-glia cultures were pretreated with 10^−5-10^−17M DM 30 minutes prior to treatment with 10 ng/ml of LPS.
Seven days after treatment, the degeneration of dopaminergic neurons was assessed by [^3H]-dopamine (DA) uptake assays. The [^3H]-DA uptake assays were performed as follows. Cultures were washed twice with warm Krebs-Ringer buffer (KRB, 16 mM sodium phosphate, 119 mM NaCl, 4.7 mM KCl, 1.8 mM CaCl2, 1.2 mM MgSO4, 1.3 mM EDTA, and 5.6 mM glucose; pH7.4) and then incubated for about 20 minutes at about 37° C. with 1 μM [^3H]-DA in KRB in order to allow for the uptake of DA. Afterwards, the cultures were washed (three times) with ice-cold KRB and the cells were collected in 1 N NaOH. Radioactivity was determined by liquid scintillation counting.
(§3) This example tests whether or not post-treatment with DM is still neuroprotective in LPS-induced neurotoxicity. Neuron-glia co-cultures as prepared in Example 1 were first treated with LPS (20 ng/ml) for twelve hours, and then LPS was removed by removing the media from the cultures and washing twice with PBS. Different concentrations of DM (10^−5, 10^−10, and 10^−14 M) were then added to the cultures and incubation was continued for another 6 or 7 days. The DA uptake and the superoxide production were measured as in Example 1 and 5.
Neuron-glia cell cultures were prepared as in Example 1, and pretreated with the various peptide fragments of Table 1 (peptide fragments were obtained from BACHEM) for 30 minutes followed by addition of 5 ng/ml of LPS. DA neurotoxicity was measured as an Example 1 at 7 days post treatment.
DA neurotoxicity was measured at 7 days post treatment as in Example 1. Dopaminergic neuronal death was determined at 7 days post treatment using immunocytochemical staining as in Example 2.
Neuron-glia cultures were prepared from the ventral mesencephalic tissues of embryonic day 13-14 rats. Dissociated cells were seeded at 1×10^5/well and 5×10^5/well to poly-D-lysine-coated 96-well and 24-well plates, respectively.

[5] = system: dopaminergic neurons in PHOX^+/+ and PHOX^−/− mouse neuron-glia cultures; test: [3H]DA uptake in neuron-glia cultures of PHOX+/+ and PHOX−/− mice; format: cell-based; details: PHOX−/− cultures, 10^−13-10^−14 M, LPS 5 ng/ml
Description: To further study the role of ROS in DM-elicited neuroprotection, neuron-glia cultures were prepared from NADPH oxidase-deficient (PHOX^−/−) and wild-type (PHOX^+/+) mice.
as §1, §2

[6] = system: dopaminergic neurons in rat primary mesencephalic neuron-glia cultures; test: [3H]DA uptake in LPS-treated mesencephalic neuron-glia cultures; format: cell-based; details: femtomolar concentrations, LPS 5 ng/ml
[7] = system: intracellular reactive oxygen species; test: Intracellular ROS (DCFH oxidation) after LPS; format: cell-based, rat; details: 10^−14 M, enriched-microglia cultures, LPS 10 ng/ml
Description: The production of intracellular reactive oxygen species was measured by DCFH oxidation. The DCFH-DA (Molecular Probes, Eugene, Oreg.) reagent passively diffuses into cells in which it is hydrolyzed by intracellular esterase to liberate 2′-7′-dichlorofluoressein which, during reaction with oxidizing species, yields a highly fluorescent compound 2′-7′-dichlorofluorescein (DCF) that is trapped inside the cell. For each measurement, a fresh stock solution of CM-H2-DCFDA (5 mM) was prepared in dimethylsulfoxide. CM-H2-DCFDA, diluted to a final concentration of 1 μM in phenol red-free HBSS containing 2% FBS and 2% HS, was added to cultures and incubated for about 30 min at about 37° C. After washing two times with warm HBSS, vehicle or stimulators in HBSS were added to cultures. After incubation for about 30 min at about 37° C., fluorescence intensity was measured at 485 nm for excitation and 530 nm for emission using a SpectraMax Gemini XS fluorescence microplate reader (Molecular Devices).
Assay of intracellular ROS is performed as follows. 5-(and −6)-Chloromethyl-2′,7′-dichlorodihydrofluorescein diacetate (CM-H2-DCFDA) (Molecular Probes, Eugene, Oreg.), a chloromethyl derivative of H2-DCFDA, passively diffuses into cells in which it is hydrolyzed by intracellular esterases to liberate 2′-7′-dichlorofluorescein (DCF) which, during reaction with oxidizing species, yields a highly fluorescent compound that is trapped inside the cell. […] Cells were seeded at 1×10^5/well in 96-well plates for one day followed by treatment with 0.6 mM or 1.2 mM VPA for 24 h. The cultures were used for the assay of intracellular ROS.
After washing two times with warm Hank's balanced salt solution (HBSS), CM-H2-DCFDA, diluted to a final concentration of 1 μM in phenol red-free HBSS, was added to cultures and incubated for 30 min at 37° C. Then cultures were added with 0.6 or 1.2 mM VPA in HBSS again for 30 min and followed the treatment with 100 ng/ml LPS for 2 hours at 37° C., fluorescence intensity was measured at 485 nm for excitation and 530 nm for emission using a SpectraMax Gemini XS fluorescence microplate reader (Molecular Devices, Sunnyvale, Calif.).

superoxide = test: Superoxide release (SOD-inhibitable cytochrome c reduction) after LPS; format: cell-based, rat; details: 10^−14 M, enriched-microglia cultures, LPS 10 ng/ml
Description: The release of superoxide was determined by measuring the superoxide dismutase (SOD)-inhibitable reduction of cytochrome c. To measure the immediate release of superoxide from microglia-enriched or neuron-glia after stimulation, cultures grown in 96-well plates were switched to phenol red-free HBSS (50 μl/well). To each well was added 50 μl of HBSS containing vehicle or DM. The cultures were then incubated at about 37° C. for about 30 min followed by 50 μl of ferricytochrome c (100 μM) in HBSS, with and without 600 U/ml SOD, 50 μl of vehicle or LPS in HBSS. The absorbance at 550 nm was read with a SpectraMax Plus microplate spectrophotometer (Molecular Devices, Sunnyvale, Calif.).
as §3, with “5. Results are expressed as a percentage of the control cultures and are the mean±S.E.M of three to six experiments with triplicates in each experiment. ##, P<0.01 compared with control culture; *, P<0.05 compared with the LPS-treated culture.” for “5.”
Primary enriched-microglia cultures were prepared as in Example 1. […] The intracellular ROS concentrations and superoxide amounts were measured as in Example 5. The data are expressed as the percent of the control cultures and are the mean±SEM of three experiments performed in triplicate. *P<0.05, **P<0.01, compared to control.

Molecule	increase in DA uptake [1]	neurotrophic effect (DA uptake) in neuron-glia culture [2]	TNFα reduction in response to LPS (TNFα; PHOX−/− mice, 30 min pretreatment)	TNFα reduction in response to LPS (TNFα; control (PHOX+/+) mice, 10^−14 M)	concentration of peak protection against LPS-induced DA neuron cell loss ([3]; 10^−12-10^−16 M tested)	LPS-induced damage of TH immuno-reactive neurons ([3]; 10^−14 M)	concentration of greatest level of protection (DA uptake) ([4]; 10^−12-10^−16 M tested)	enhancement of [3H]DA uptake after exposure to LPS ([4]; 30 min pretreatment, 7 days)	neuroprotection (DA uptake) [5]	neuroprotection against LPS-induced neurodegeneration [6]	reduction of intracellular ROS concentrations [7]	microglial superoxide response (superoxide)
CCCC(=O)[O-].[Na+] [sodium butyrate, Sodium Butyrate]	less than 2 fold	pronounced neurotrophic effect	–	–	–	–	–	–	–	–	–	–
glycine-glycine-phenylalanine [GGF]	–	–	failed to show any TNFα reduction	showed a reduction of TNFα	10^−14 M	protected TH immuno-reactive neurons from LPS-induced damage	10^−14 M	approximately 35%	failed to show neuroprotection	minimal peptide sequence required for neuroprotection	65%	nearly control levels
